Columns and labels:
NFκB = NFκB assay: luciferase reporter in stable Jurkat T-cells, PMA/PHA stimulated; format: cell-based; conditions: Homo sapiens, PMA 50 ng/mL + PHA 1 μg/mL, 5 h, read-out: NFkB IC50
Procedure: (§1) Stable human Jurkat T-cells containing an NFκB binding site (from the MHC promoter) fused to a minimal SV-40 promoter driving luciferase expression were used in this experiment. Cells were split to 3×10^5 cells/mL every 2-3 days (cell concentration should not exceed 1×10^6 cells/mL to keep the cells proliferating in log phase). These cells were counted, resuspended in fresh medium containing 10% Serum-Plus at a density of 1×10^6 cells/mL and plated in 96 well round bottom plates (200 μL per well) 18 hours prior to starting the experiment.
(§2) Compounds of this invention, dissolved in dimethyl sulfoxide (3.3, 0.33 and 0.03 μg/mL), were then added to the 96 well plates containing the cells and the plates are incubated for 0.5 h at 37° C. Then 50 ng/mL of phorbol 12-myristate-13-acetate (PMA) and 1 μg/mL of phytohemagglutinin (PHA) was added to each well and the cells were incubated for an additional 5 h at 37° C. The plates were centrifuged at 2200 RPM for 3 minutes at room temperature and then the medium was removed. To each well was added 60 μL of cell lysis buffer and the plates were left at room temperature for 0.25 h. Then 40 μL of each cell extract was transferred to a black 96 well plate and 50 μL of luciferase substrate buffer was added. Luminescence was immediately measured using a Packard TopCount.

AP-1 = AP-1 assay: -73 collagenase promoter luciferase reporter in stable Jurkat T-cells, PMA/PHA stimulated; format: cell-based; conditions: Homo sapiens, PMA 5 ng/mL + PHA 1 μg/mL, 5 h
Procedure: as §1, §2
(§3) For AP-1, the assay was run as described above for NFκB except stable Jurkat T-cells were used that contained a the -73 collagenase promoter driving luciferase expression. In addition, the concentration of PMA used was 5 ng/mL.
The results of the above assays (expressed as IC50 's, μM) for representative compounds of this invention, as percent inhibition versus control, are presented in Table 3. β-actin was employed as a control […] indicating effects on transcription. The lack of β-actin activity evidences selectivity of the test compounds for the transcription factors AP-1 and NFκB.

IL-2 = assay: Inhibition of PMA/PHA-induced IL-2 production (ELISA, supernatants of AP-1 reporter assay); format: cell-based; conditions: Homo sapiens
Procedure: as §1, §2, §3
(§4) Cytokine levels in the supernatants (25-50 μL aliquots) were determined by ELISA.

IL-8 = assay: Inhibition of PMA/PHA-induced IL-8 production (ELISA, supernatants of NFκB reporter assay); format: cell-based; conditions: Homo sapiens
Procedure: as §1, §2, §4

mice [1] = conditions: Morris et al., Transplantation Proceedings 1990; cited from earlier work
mice [2] = conditions: Morris et al., Transplantation Proceedings 1990; cited from earlier work; remark: listed apart in the source

SMILES | IC50 (NFκB) [µM] | IC50 (AP-1) [µM] | IC50 (IL-2) [µM] | IC50 (IL-8) [µM] | activity in the popliteal lymph node (PLN) model (mice [1]) | activity in the delayed-type hypersensitivity (oxazolone) model (mice [2])
CC1=CC(=O)N(Nc2nc(-c3ccccc3)nc3ccccc23)C1=O [Compound 1, 4-(N-AMINOCITRACONAMIDO)-2-PHENYLQUINAZOLINE] | 0.1 | 0.2 | 0.01 | 0.002 | – | –
CSc1ccc2nc(C(F)(F)F)nc(NN3C(=O)C=C(C)C3=O)c2c1 [Compound 8, 4-(N-AMINOCITRACONAMIDO)-6-METHYLTHIO-2-TRIFLUOROMETHYLQUNINAZOLINE] | 0.06 | 0.09 | 0.04 | 0.05 | – | –
CC1=CC(=O)N(Nc2nc(C(F)(F)F)nc3cc(N4CCCCC4)ccc23)C1=O [Compound 7, 4-(N-AMINOCITRACONAMIDO)-7-(N-PIPERIDYL)-2-TRIFLUOROMETHYLQUNINAZOLINE] | 0.1 | – | 0.07 | 0.005 | – | –
O=P1(N(CCCl)CCCl)NCCCO1 (stereo not shown) [cyclophosphamide] | – | – | – | – | active | active
COc1cccc2nc(C(F)(F)F)nc(NN3C(=O)C=C(C)C3=O)c12 [Compound 4, 4-(N-AMINOCITRACONAMIDO)-5-METHOXY-2-TRIFLUOROMETHYLQUNINAZOLINE] | 0.01 | 0.01 | 0.12 | 0.05 | – | –
CC1=CC(=O)N(Nc2nc(-c3cccs3)nc3ccccc23)C1=O [Compound 11, 4-(N-AMINOCITRACONAMIDO)-2-(2'-THIENYL)QUNINAZOLINE] | 0.04 | 0.07 | – | – | – | –
CC1=CC(=O)N(Nc2nc(C(F)(F)F)nc3ccc(S(C)(=O)=O)cc23)C1=O [Compound 10, 4-(N-AMINOCITRACONAMIDO)-6-METHYLSULFONYL-2-TRIFLUOROMETHYLQUNINAZOLINE] | 8 | 10 | – | – | – | –
CC1=CC(=O)N(N(C)c2nc(-c3cccs3)nc3ccccc23)C1=O [Compound 12, 4-(N-METHYL-N-AMINOCITRACONAMIDO)-2-(2'-THIENYL)QUNINAZOLINE] | 2.2 | 1.7 | – | – | – | –
CC1=CC(=O)N(Nc2nc(C(F)(F)F)nc3cccc(C)c23)C1=O [Compound 5, 4-(N-AMINOCITRACONAMIDO)-5-METHYL-2-TRIFLUOROMETHYLQUINAZOLINE] | 0.2 | 0.5 | 0.02 | 0.002 | – | –
CC1=CC(=O)N(Nc2nc(C(F)(F)F)nc3ccccc23)C1=O [Compound 3, 4-(N-AMINOCITRACONAMIDO)-2-TRIFLUOROMETHYLQUINAZOLINE] | 0.01 | 0.1 | 0.05 | 0.03 | – | –
CC1=CC(=O)N(Nc2nc(-c3cccs3)nc3cnccc23)C1=O [Compound 2, 4-(N-AMINOCITRACONAMIDO)-2-(2'-THIENYL)PYRIDOPYRIMIDINE] | 0.1 | 0.1 | 0.7 | 0.1 | – | –
CC1=CC(=O)N(Nc2nc(C(F)(F)F)nc3cc(Cl)ccc23)C1=O [Compound 6, 4-(N-AMINOCITRACONAMIDO)-7-CHLORO-2-TRIFLUOROMETHYLQUINAZOLINE] | 0.1 | 0.3 | 0.5 | 0.05 | – | –

Now from value to compound, other results behind:

IC50 (NFκB) [µM] | IC50 (AP-1) [µM] | IC50 (IL-2) [µM] | IC50 (IL-8) [µM] | SMILES | activity in the popliteal lymph node (PLN) model (mice [1]) | activity in the delayed-type hypersensitivity (oxazolone) model (mice [2])
0.01 | 0.02 | – | – | COc1ccc2c(NN3C(=O)C=C(C)C3=O)nc(-c3cccs3)nc2c1 [Compound 15, 4-(N-AMINOCITRACONAMIDO)-7-METHOXY-2-(2'-THIENYL)QUINAZOLINE] | – | –
0.02 | 0.03 | – | – | CC1=CC(=O)N(Nc2nc(-c3cccs3)nc3cccc(Cl)c23)C1=O [Compound 21, 4-(N-AMINOCITRACONAMIDO)-5-CHLORO-2-(2'-THIENYL)QUINAZOLINE] | – | –
0.02 | 0.02 | – | – | COc1cccc2c(NN3C(=O)C=C(C)C3=O)nc(-c3cccs3)nc12 [Compound 16, 4-(N-AMINOCITRACONAMIDO)-8-METHOXY-2-(2'-THIENYL)QUNINAZOLINE] | – | –
0.2 | 0.07 | – | – | CC1=CC(=O)N(Nc2nc(-c3cccs3)nc3cccc(F)c23)C1=O [Compound 20, 4-(N-AMINOCITRACONAMIDO)-5-FLUORO-2-(2'-THIENYL)QUINAZOLINE] | – | –
0.04 | 0.04 | – | – | CC1=CC(=O)N(Nc2nc(-c3cccs3)nc3cc(N(C)C)ccc23)C1=O [Compound 23, 4-(N-AMINOCITRACONAMIDO)-7-DIMETHYLAMINO-2-(2'-THIENYL)QUINAZOLINE] | – | –
0.008 | 0.008 | – | – | COc1cccc2nc(-c3cccs3)nc(NN3C(=O)C=C(C)C3=O)c12 [Compound 13, 4-(N-AMINOCITRACONAMIDO)-5-METHOXY-2-(2'-THIENYL)QUINAZOLINE] | – | –
0.01 | 0.02 | – | – | COc1cc2c(NN3C(=O)C=C(C)C3=O)nc(-c3cccs3)nc2c(OC)c1OC [Compound 18, 4-(N-AMINOCITRACONAMIDO)-6,7,8-TRIMETHOXY-2-(2'-THIENYL)QUNINAZOLINE] | – | –
0.04 | 0.07 | – | – | COc1cc2nc(-c3cccs3)nc(NN3C(=O)C=C(C)C3=O)c2cc1OC [Compound 17, 4-(N-AMINOCITRACONAMIDO)-6,7-DIMETHOXY-2-(2'-THIENYL)QUINAZOLINE] | – | –
0.01 | 0.03 | – | – | CC1=CC(=O)N(Nc2nc(-c3cccs3)nc3cccc(C)c23)C1=O [Compound 22, 4-(N-AMINOCITRACONAMIDO)-5-METHYL-2-(2'-THIENYL)QUNINAZOLINE] | – | –
0.002 | 0.003 | – | – | COc1ccc2nc(-c3cccs3)nc(NN3C(=O)C=C(C)C3=O)c2c1 [Compound 14, 4-(N-AMINOCITRACONAMIDO)-6-METHOXY-2-(2'-THIENYL)QUNINAZOLINE] | – | –
0.1 | 0.07 | – | – | COc1cccc2nc(-c3cccs3)nc(N(C)N3C(=O)C=C(C)C3=O)c12 [Compound 19, 4-(N-METHYL-N-AMINOCITRACONAMIDO)-5-METHOXY-2-(2'-THIENYL)QUNINAZOLINE] | – | –

Reference: patent US5939421A, “Quinazoline analogs and related compounds and methods for treating inflammatory conditions” (Signal Pharmaceuticals, Inc., priority 1997, dated 1999)
